According to BindingDB's records for doi:10.1016/j.ejmech.2016.03.076 (Chinese Academy of Sciences (Cas), 2016):

Key:
[1] = Inhibition of c-Met in human EBC-1 cells assessed as reduction in cell proliferation after 72 hrs by SRB or MTT assay
[2] = Inhibition of TPR-MET in mouse BAF3 cells assessed as reduction in cell proliferation after 72 hrs by SRB or MTT assay
[3] = Inhibition of c-Met in human MKN45 cells assessed as reduction in cell proliferation after 72 hrs by SRB or MTT assay

Row | Compound | IC50 [1] [nM] | IC50 [2] [nM] | IC50 [3] [nM]
1 | Cn1cc(-c2ccc3nnc(C(F)(F)c4ccc5ncccc5c4)n3n2)cn1 [US9062045, Comparator No. 1 (JNJ-38877605)] | 5.5 | 8.6 | 9.5
2 | Fc1ccc(-c2cnc3nnc(C(F)(F)c4ccc5ncccc5c4)n3n2)cc1 | 0.85 | – | 0.46
